Common to all, as to format: functional
The test system of one assay is Escherichia coli. Put plainly: Antibacterial activity against Escherichia coli ATCC 8099 incubated for 16 hrs by broth microdilution method. The conditions noted are these: ATCC 8099, 16 h.
Assay [1] relates to Staphylococcus aureus. As to the kind of experiment: Antibacterial activity against methicillin-resistant Staphylococcus aureus shhs-A1 incubated for 16 hrs by broth microdilution method. The conditions noted are these: shhs-A1, 16 h. In general terms: Dilution methods test growth across graded concentrations, often in twofold steps.
Assay [2] concerns Staphylococcus aureus. Put plainly: Antibacterial activity against Staphylococcus aureus ATCC 6538 incubated for 16 hrs by broth microdilution method. The conditions noted are these: ATCC 6538, 16 h.
In another assay the test system is Bacillus spizizenii. Put plainly: Antibacterial activity against Bacillus subtilis ATCC 6633 incubated for 16 hrs by broth microdilution method. The conditions noted are these: ATCC 6633, 16 h.

Values after ≈ are worked out from the molar mass of the structure shown.

The record followed here is ChEMBL document CHEMBL4622887, “Antibacterial Pentacyclic Polyketides from a Soil-Derived Streptomyces” (2020).

Broadly, the MIC is the least concentration at which growth counts as inhibited.

For `COc1cc(C)c(-c2cc(OC)c(Cl)c3c2C(=O)[C@@]2(O)C(=O)c4c(O)cc(O)cc4C(C)(C)[C@H]2C3)c(O)c1`, the MIC in the assay on Escherichia coli was 3.13 µg/mL (≈ 5.81 µM); against Staphylococcus aureus [1], 6.25 µg/mL (≈ 11.6 µM); against Staphylococcus aureus [2] it was 6.25 µg/mL (≈ 11.6 µM); in the assay with Bacillus spizizenii, 6.25 µg/mL (≈ 11.6 µM).

`COc1cc(C)c(-c2cc(O)c(Cl)c3cc4c(c(O)c23)C(=O)c2c(O)cc(OC)cc2C4(C)C)c(OC)c1`: the MIC in the assay with Escherichia coli, against Staphylococcus aureus [1], against Staphylococcus aureus [2] and in the assay with Bacillus spizizenii was 6.25 µg/mL (≈ 11.7 µM) in each case.

Turning to `COc1cc(C)c(-c2cc(OC)cc3cc4c(c(O)c23)C(=O)c2c(O)cc(O)cc2C4(C)C)c(OC)c1`, the MIC stood at 1.56 µg/mL (≈ 3.12 µM) with Escherichia coli, 1.56 µg/mL (≈ 3.12 µM) in the assay on Staphylococcus aureus [1], 3.13 µg/mL (≈ 6.25 µM) against Staphylococcus aureus [2] and 3.13 µg/mL (≈ 6.25 µM) in the assay with Bacillus spizizenii.

As to `COc1cc(-c2c(O)cc(OC)c(Cl)c2C)c2c(O)c3c(cc2c1)C(C)(C)c1cc(O)cc(O)c1C3=O`, the MIC against Escherichia coli came to 3.13 µg/mL (≈ 6.01 µM); against Staphylococcus aureus [1] it was 3.13 µg/mL (≈ 6.01 µM); in the assay on Staphylococcus aureus [2], 6.25 µg/mL (≈ 12 µM); in the assay on Bacillus spizizenii it was 6.25 µg/mL (≈ 12 µM).

For `COc1cc(C)c(-c2cc(O)c(Cl)c3c2C(=O)[C@@]2(O)C(=O)c4c(O)cc(O)cc4C(C)(C)[C@H]2C3)c(O)c1`, the MIC against Escherichia coli is 25 µg/mL (≈ 47.6 µM); against Staphylococcus aureus [2], 12.5 µg/mL (≈ 23.8 µM); against Bacillus spizizenii, 50 µg/mL (≈ 95.2 µM).

Take `COc1cc(C)c(-c2cc(OC)c(Cl)c3cc4c(c(O)c23)C(=O)c2c(O)cc(O)cc2C4(C)C)c(OC)c1`: the MIC was 3.13 µg/mL (≈ 5.85 µM) against Escherichia coli, 3.13 µg/mL (≈ 5.85 µM) against Staphylococcus aureus [1], 3.13 µg/mL (≈ 5.85 µM) in the assay on Staphylococcus aureus [2] and 12.5 µg/mL (≈ 23.4 µM) in the assay on Bacillus spizizenii.

For the molecule `COc1cc(OC)c(-c2cc(OC)c(Cl)c3c2C(=O)[C@@]2(O)C(=O)c4c(cc(O)c(Cl)c4O)C(C)(C)[C@H]2C3)c(C)c1Cl`, the MIC against Escherichia coli is 12.5 µg/mL (≈ 20.1 µM); with Staphylococcus aureus [1] it was 3.13 µg/mL (≈ 5.03 µM); in the assay on Staphylococcus aureus [2], 6.25 µg/mL (≈ 10 µM); against Bacillus spizizenii, 3.13 µg/mL (≈ 5.03 µM).

As for `COc1cc(O)c(-c2cc(OC)c(Cl)c3c2C(=O)[C@@]2(O)C(=O)c4c(O)cc(O)cc4C(C)(C)[C@H]2C3)c(C)c1Cl`, the MIC worked out at 1.56 µg/mL (≈ 2.72 µM) against Escherichia coli, 1.56 µg/mL (≈ 2.72 µM) against Staphylococcus aureus [1], 0.39 µg/mL (≈ 0.68 µM) against Staphylococcus aureus [2] and 1.56 µg/mL (≈ 2.72 µM) with Bacillus spizizenii.

For the molecule `COc1cc(C)c(-c2cc(OC)cc3cc4c(c(O)c23)C(=O)c2c(O)cc(O)cc2C4(C)C)c(O)c1`, the MIC was found to be 3.13 µg/mL (≈ 6.43 µM) against Escherichia coli, 3.13 µg/mL (≈ 6.43 µM) with Staphylococcus aureus [1], 3.13 µg/mL (≈ 6.43 µM) against Staphylococcus aureus [2] and 6.25 µg/mL (≈ 12.8 µM) in the assay on Bacillus spizizenii.

Turning to `COc1cc(OC)c(-c2cc(OC)c(Cl)c3c2C(=O)[C@@]2(O)C(=O)c4c(O)cc(O)cc4C(C)(C)[C@H]2C3)c(C)c1Cl`, the MIC against Escherichia coli was found to be 25 µg/mL (≈ 42.6 µM); against Staphylococcus aureus [1], 25 µg/mL (≈ 42.6 µM); in the assay on Staphylococcus aureus [2], 6.25 µg/mL (≈ 10.6 µM); against Bacillus spizizenii, 25 µg/mL (≈ 42.6 µM).

For `COc1cc(O)c(-c2cc(O)cc3cc4c(c(O)c23)C(=O)c2c(O)cc(O)cc2C4(C)C)c(C)c1Cl`, the MIC with Escherichia coli is 3.13 µg/mL (≈ 6.17 µM); with Staphylococcus aureus [1], 1.56 µg/mL (≈ 3.08 µM); with Staphylococcus aureus [2], 3.13 µg/mL (≈ 6.17 µM); against Bacillus spizizenii it was 3.13 µg/mL (≈ 6.17 µM).

`COc1cc(C)c(-c2cc(OC)c(Cl)c3c2C(=O)[C@@]2(O)C(=O)c4c(O)c(Cl)c(O)c(Cl)c4C(C)(C)[C@H]2C3)c(OC)c1`: the MIC against Escherichia coli amounted to 0.78 µg/mL (≈ 1.25 µM); against Staphylococcus aureus [1], 0.2 µg/mL (≈ 0.322 µM); with Staphylococcus aureus [2], 0.39 µg/mL (≈ 0.627 µM); against Bacillus spizizenii it was 0.39 µg/mL (≈ 0.627 µM).

With `COc1cc(C)c(-c2cc(OC)c(Cl)c3c2C(=O)[C@@]2(O)C(=O)c4c(O)cc(O)c(Cl)c4C(C)(C)[C@H]2C3)c(OC)c1`, the MIC against Escherichia coli came to 1.56 µg/mL (≈ 2.66 µM); in the assay with Staphylococcus aureus [1] it was 1.56 µg/mL (≈ 2.66 µM); against Staphylococcus aureus [2] it was 0.78 µg/mL (≈ 1.33 µM); against Bacillus spizizenii it was 3.13 µg/mL (≈ 5.33 µM).

Regarding `COc1cc(O)cc(C)c1-c1cc(O)c(Cl)c2cc3c(c(O)c12)C(=O)c1c(O)cc(O)cc1C3(C)C`, the MIC is 6.25 µg/mL (≈ 12.3 µM) against Escherichia coli, 3.13 µg/mL (≈ 6.17 µM) in the assay on Staphylococcus aureus [1], 1.56 µg/mL (≈ 3.08 µM) against Staphylococcus aureus [2] and 6.25 µg/mL (≈ 12.3 µM) against Bacillus spizizenii.

On to `COc1cc(OC)c(-c2cc(OC)c(Cl)c3c2C(=O)[C@@]2(O)C(=O)c4c(O)cc(O)c(Cl)c4C(C)(C)[C@H]2C3)c(C)c1Cl`, for which the MIC was found to be 1.56 µg/mL (≈ 2.51 µM) in the assay on Escherichia coli, 3.13 µg/mL (≈ 5.03 µM) against Staphylococcus aureus [1], 3.13 µg/mL (≈ 5.03 µM) with Staphylococcus aureus [2] and 1.56 µg/mL (≈ 2.51 µM) against Bacillus spizizenii.

Consider `COc1cc(C)c(-c2cc(OC)c(Cl)c3c2C(=O)[C@@]2(O)C(=O)c4c(O)cc(O)cc4C(C)(C)[C@H]2C3)c(OC)c1`, for which the MIC in the assay with Escherichia coli amounted to 3.13 µg/mL (≈ 5.66 µM); against Staphylococcus aureus [1] it was 1.56 µg/mL (≈ 2.82 µM); with Staphylococcus aureus [2], 3.13 µg/mL (≈ 5.66 µM); against Bacillus spizizenii, 3.13 µg/mL (≈ 5.66 µM).

Consider `COc1cc2c(c(-c3c(O)cc(OC)c(Cl)c3C)c1)C(=O)[C@@]1(O)C(=O)c3c(O)cc(O)cc3C(C)(C)[C@H]1C2`, for which the MIC in the assay on Escherichia coli was found to be 3.13 µg/mL (≈ 5.81 µM); in the assay with Staphylococcus aureus [1] it was 3.13 µg/mL (≈ 5.81 µM); in the assay with Staphylococcus aureus [2], 3.13 µg/mL (≈ 5.81 µM); against Bacillus spizizenii, 6.25 µg/mL (≈ 11.6 µM).

On to `NC[C@H]1O[C@H](O[C@H]2[C@H](O)[C@@H](O[C@H]3O[C@H](CO)[C@@H](O)[C@H](N)[C@H]3O)[C@H](N)C[C@@H]2N)[C@H](O)[C@@H](O)[C@@H]1O` [KANAMYCIN], for which the MIC was 50 µg/mL (≈ 103 µM) against Escherichia coli, 1.56 µg/mL (≈ 3.22 µM) against Staphylococcus aureus [2] and 0.78 µg/mL (≈ 1.61 µM) in the assay on Bacillus spizizenii.

For `CN[C@H](CC(C)C)C(=O)N[C@H]1C(=O)N[C@@H](CC(N)=O)C(=O)N[C@H]2C(=O)N[C@H]3C(=O)N[C@H](C(=O)N[C@H](C(=O)O)c4cc(O)cc(O)c4-c4cc3ccc4O)[C@H](O)c3ccc(c(Cl)c3)Oc3cc2cc(c3O[C@@H]2O[C@H](CO)[C@@H](O)[C@H](O)[C@H]2O[C@H]2C[C@](C)(N)[C@H](O)[C@H](C)O2)Oc2ccc(cc2Cl)[C@H]1O` [VANCOMYCIN], it took 1.56 µg/mL (≈ 1.08 µM) to inhibit growth in the assay on Staphylococcus aureus [1] (MIC).
